Tested on: moderate-to-severe chronic spontaneous urticaria (CSU)
Experiment: Phase 2 CSU study: urticaria activity score over 7 days (UAS7)
Format: in vivo, human
Set-up: key to UAS7 Median / UAS7 Change from baseline Median / UAS7 change from baseline, Q1 / UAS7 change from baseline, Q3 / UAS7 change from baseline, Max / UAS7 Change from baseline LS Mean (SE): UAS7 points; daily UAS score ranges 0–6 points/day, over 7 days
Text: The study comprises a 12 week, randomized, double-blind, placebo-controlled, multi-center, dose-ranging efficacy and safety phase, followed by a 40 week open label extension (OLE) phase (see FIG. 1). The study consists of three phases and an optional OLE phase. […] Clinically, CSU is characterized by the spontaneous and recurrent appearance of pruritic hives. The proposed primary endpoints were the UAS7 at Week 12 in EU and EU reference countries and the ISS7 in the US. Regardless of where a participant was from, all assessments were the same. The UAS7 score is a composite score containing both the HSS7 and the ISS7. This allowed a global assessment of the two key components of urticaria: hives and itch. […] The UAS is a validated PRO measure. […] The daily UAS scores range from 0 to 6 point/day. […] Patients were to complete the UAS using the e-diary. […] The following secondary endpoints were to be analyzed using the same approach as for the primary endpoint: • Change from baseline in UAS7 at Week 4 • Change from baseline in UAS7 at Week 12 (for US and US reference countries) • Change from baseline in ISS7 at Week 12 (except US and US reference countries) • Change from baseline in HSS7 at Week 12 The following responder secondary endpoints were to be analyzed using the Cochran-Mantel-Haenszel test adjusted by region: • Proportion of participants with UAS7<6 at Week 12 • Proportion of participants with UAS7=0 at Week 12 Participants who received selected prohibited medications and/or rescue medications were to be considered as non-responders for time points after the medication usage. For other participants, all available data including those collected during the off-treatment period were to be used to determine the responder/non-responder status. Missing data were to be considered as non-responders.

[1] = Week 3, 400 mg TID, Omalizumab-Naïve
[2] = Week 3, 400 mg TID, Prior Omalizumab Use
[3] = Week 3, 400 mg TID, omalizumab-naive participants
[4] = Week 4, 400 mg BID, ITT population
[5] = Week 4, 400 mg BID, Omalizumab-Naïve
[6] = Week 4, 400 mg BID, Prior Omalizumab Use
[7] = Week 4, 400 mg BID, omalizumab-naive participants
[8] = Week 4, 400 mg QPM, ITT population
[9] = Week 4, 400 mg QPM, Omalizumab-Naïve
[10] = Week 4, 400 mg QPM, Prior Omalizumab Use
[11] = Week 4, 400 mg QPM, omalizumab-naive participants
[12] = Week 4, 400 mg TID, ITT population
[13] = Week 4, 400 mg TID, Omalizumab-Naïve
[14] = Week 4, 400 mg TID, Prior Omalizumab Use

Q: What does the source list for `CC(C)(C=C(C#N)C(=O)N1CCC[C@@H](n2nc(-c3ccc(Oc4ccccc4)cc3F)c3c(N)ncnc32)C1)N1CCN(C2COC2)CC1` [rilzabrutinib, (R)-2-[3-[4-amino-3-(2-fluoro-4-phenoxy-phenyl)pyrazolo[3,4-d]pyrimidin-1-yl]piperidine-1-carbonyl]-4-methyl-4-[4-(oxetan-3-yl)piperazin-1-yl]pent-2-enenitrile]?
A: UAS7 Percent change from baseline Mean (SD) [1]: −48.87 (33.07) %; UAS7 Percent change from baseline Median [1]: −48.08%; UAS7 Change from baseline Mean (SD) [2]: −24.14 (11.99); UAS7 Change from baseline Median [2]: −24.50; UAS7 Median [2]: 7.67; UAS7 Percent change from baseline Mean (SD) [2]: −71.37 (19.75) %; UAS7 Percent change from baseline Median [2]: −64.58%; Non-responder, UAS7 reduction from baseline of 10 points or more [3]: 14 (40.0) n (%); OR for rilzabrutinib vs. placebo, UAS7 reduction of 10 points or more [3]: 2.949; RRD (%) for rilzabrutinib vs. placebo, UAS7 reduction of 10 points or more [3]: 27.1 %; Responder, UAS7 reduction from baseline of 10 points or more [3]: 21 (60.0) n (%); Non-responder, UAS7 reduction from baseline of 10 points or more [4]: 19 (46.3) n (%); OR for rilzabrutinib vs. placebo, UAS7 reduction of 10 points or more [4]: 1.853; RRD (%) for rilzabrutinib vs. placebo, UAS7 reduction of 10 points or more [4]: 14.7 %; Responder, UAS7 reduction from baseline of 10 points or more [4]: 22 (53.7) n (%); UAS7 Change from baseline Mean (SD) [5]: −13.49 (10.97); UAS7 Change from baseline Median [5]: −11.00; UAS7 Mean (SD) [5]: 15.92 (11.71); UAS7 Median [5]: 14.00; UAS7 Percent change from baseline Mean (SD) [5]: −46.55 (35.69) %; UAS7 Percent change from baseline Median [5]: −41.94%; UAS7 Change from baseline Mean (SD) [6]: −21.80 (16.62); UAS7 Change from baseline Median [6]: −26.00; UAS7 Mean (SD) [6]: 13.60 (16.55); UAS7 Median [6]: 3.00; UAS7 Percent change from baseline Mean (SD) [6]: −62.33 (45.90) %; UAS7 Percent change from baseline Median [6]: −91.43%; Non-responder, UAS7 reduction from baseline of 10 points or more [7]: 17 (48.6) n (%); OR for rilzabrutinib vs. placebo, UAS7 reduction of 10 points or more [7]: 2.046; RRD (%) for rilzabrutinib vs. placebo, UAS7 reduction of 10 points or more [7]: 16.8 %; Responder, UAS7 reduction from baseline of 10 points or more [7]: 18 (51.4) n (%); Non-responder, UAS7 reduction from baseline of 10 points or more [8]: 23 (60.5) n (%); OR for rilzabrutinib vs. placebo, UAS7 reduction of 10 points or more [8]: 1.224; RRD (%) for rilzabrutinib vs. placebo, UAS7 reduction of 10 points or more [8]: 4.4 %; Responder, UAS7 reduction from baseline of 10 points or more [8]: 15 (39.5) n (%); UAS7 Change from baseline Mean (SD) [9]: −9.18 (9.24); UAS7 Change from baseline Median [9]: −7.00; UAS7 Mean (SD) [9]: 21.92 (8.82); UAS7 Median [9]: 21.00; UAS7 Percent change from baseline Mean (SD) [9]: −27.91 (26.53) %; UAS7 Percent change from baseline Median [9]: −21.88%; UAS7 Change from baseline Mean (SD) [10]: −23.00 (NC); UAS7 Change from baseline Median [10]: −23.00; UAS7 Mean (SD) [10]: 18.00 (NC); UAS7 Median [10]: 18.00; UAS7 Percent change from baseline Mean (SD) [10]: −56.10 (NC) %; UAS7 Percent change from baseline Median [10]: −56.10%; Non-responder, UAS7 reduction from baseline of 10 points or more [11]: 23 (62.2) n (%); OR for rilzabrutinib vs. placebo, UAS7 reduction of 10 points or more [11]: 1.322; RRD (%) for rilzabrutinib vs. placebo, UAS7 reduction of 10 points or more [11]: 6.0 %; Responder, UAS7 reduction from baseline of 10 points or more [11]: 14 (37.8) n (%); Non-responder, UAS7 reduction from baseline of 10 points or more [12]: 12 (29.3) n (%); OR for rilzabrutinib vs. placebo, UAS7 reduction of 10 points or more [12]: 3.520; RRD (%) for rilzabrutinib vs. placebo, UAS7 reduction of 10 points or more [12]: 29.4 %; Responder, UAS7 reduction from baseline of 10 points or more [12]: 29 (70.7) n (%); UAS7 Change from baseline Mean (SD) [13]: −15.51 (9.79); UAS7 Change from baseline Median [13]: −14.00; UAS7 Mean (SD) [13]: 14.65 (9.61); UAS7 Median [13]: 14.00; UAS7 Percent change from baseline Mean (SD) [13]: −51.19 (29.70) %; UAS7 Percent change from baseline Median [13]: −51.09%; UAS7 Change from baseline Mean (SD) [14]: −22.94 (13.84); UAS7 Change from baseline Median [14]: −22.50; UAS7 Mean (SD) [14]: 10.08 (10.62); UAS7 Median [14]: 8.58; UAS7 Percent change from baseline Mean (SD) [14]: −67.07 (27.75) %
